Data published in US20240336565A1, “SOLID FORMS OF OSANETANT” (Acer Therapeutics, Inc., priority 2021, published 2024).
“Also recorded” adds a separate entry of the source.

Key:
[1] = Thermodynamic solubility in water and pH buffers; settings: for Concentration: 24 h Solubility at 37° C.
[2] = Comparative studies: 7-day stability; format: physicochemical; settings: for HPLC Impurity Content: 7 Day Stability
Procedure: Osanetant p-toluenesulfonic acid Form 1, osanetant benzene sulfonic acid Form 3, osanetant naphthalene-2-sulfonic acid Form 3, and osanetant phosphoric acid Form 7 were compared. Osanetant phosphoric acid Form 7 was obtained when preparation of osanetant phosphoric acid Form 4 was repeated and found to be not reproducible, and Form 7 was determined to be a mixture of hydrates).
Thus, osanetant benzene sulfonic acid salt Form 1 and osanetant p-toluene sulfonic acid salt Form 1 were identified as advantageous salts.

[3] = Long term stability: thermal stability of solids at 60° C.; format: physicochemical; settings: solids, darkened oven at 60° C., up to 14 days
Procedure: (§1) Osanetant p-toluenesulfonic acid Form 1 and osanetant benzenesulfonic acid Form 1 were tested for long-term stability across a number of different conditions, as detailed below.
Thermal stability of solids at 60° C.—Osanetant p-toluenesulfonic acid Form 1 and osanetant benzenesulfonic acid Form 1 were stored in a darkened oven at 60° C. in glass vials. Samples were taken after T=1, 2, 4, 7, and 14 days storage. […] The purity of the resulting material is described in Table 41: […]

[4] = Long term stability: oxidation (6% H2O2) at ambient temperature; format: physicochemical; settings: 6% H2O2, dark, ambient, up to 14 days
Procedure: as §1
(§2) Oxidation at Ambient Temperature-Osanetant p-toluenesulfonic acid Form 1 and osanetant benzenesulfonic acid Form 1 were prepared at an osanetant content 10 times the normal working concentration then added to HPLC vials containing 6% H2O2 and stored in the dark at ambient laboratory conditions. Samples were diluted to 2 mg/mL for analysis and were taken after T=1, 2, 4, 7, and 14 days storage. […] The purity of the resulting material is described in Table 46: […]

[5] = Salt screen: XRPD of isolated solids after drying at 40° C. and at 40° C./75% RH; format: physicochemical; settings: for XRPD after drying at 40° C./75% RH: after 40° C. drying, dried at 40° C./75% RH for about 24 h, label = form after 40° C. drying; for XRPD after drying at 40° C.: isolated solids dried at 40° C. for about 24 h, label = wet form
Procedure: To approximately 20 mg of amorphous lyophilized osanetant was added 0.3 mL of solvent for liquid counterion experiments. 0.2 mL of solvent was employed for solid counterion experiments. […] To the stirring mixture was then added 1.05 mol eq. of the appropriate counterion. Where solid counterions were used, the vial which contained the counterion was washed in to the osanetant containing vial with 0.1 mL of the appropriate solvent. Additional solvent was added where necessary. The experiments were thermally cycled as follows: heated from 25 to 40° C. at a rate of 0.1° C./min; 1 h at 40° C.; Cool to 5° C. at a rate of 0.1° C.; 1 h at 5° C.; 40° C. at a rate of 0.1° C./min; […] The crystallization experiments were thermally cycled overnight, then slurries were isolated by centrifugation. XRPD analysis was carried out on any isolated solids or gums. The XRPD plate, and the isolated solids, were then dried at 40° C. for about 24 h, and XRPD analysis was repeated. The XRPD plate was then dried at 40° C./75% RH for about 24 h and XRPD analysis was again repeated. All other samples were allowed to evaporated at ambient temperature and pressure.

[6] = Long term stability: oxidation (6% H2O2) at 60° C.; format: physicochemical; settings: 6% H2O2, 60° C., up to 14 days
Procedure: as §1
as §2, with “60° C.—Osanetant” for “Ambient Temperature-Osanetant”, “a darkened oven” for “the dark”, “60° C.” for “ambient laboratory conditions.”, “47:” for “46:”

[7] = Long term stability: base (2M NaOH) at ambient temperature; format: physicochemical; settings: 2M NaOH, dark, ambient, up to 14 days
Procedure: as §1
as §2, with “Base” for “Oxidation”, “Temperature—Osanetant” for “Temperature-Osanetant”, “2M NaOH” for “6% H2O2”, “44:” for “46:”

[8] = Long term stability: acid stability (2M HCl) at ambient temperature; format: physicochemical; settings: 2M HCl, dark, ambient, up to 14 days
Procedure: as §1
as §2, with “Acid Stability” for “Oxidation”, “2M HCl” for “6% H2O2”, “42:” for “46:”

[9] = Long term stability: base (2M NaOH) at 60° C.; format: physicochemical; settings: 2M NaOH, 60° C., up to 14 days
Procedure: as §1
as §2, with “Base” for “Oxidation”, “60° C.—Osanetant” for “Ambient Temperature-Osanetant”, “2M NaOH” for “6% H2O2”, “a darkened oven” for “the dark”, “60° C.” for “ambient laboratory conditions.”, “45:” for “46:”

[10] = Solid form stability observations (scale up / polymorph work: drying, ambient conditions, aqueous media); format: physicochemical; settings: for form stability / re-hydration under ambient conditions: ambient conditions / room temperature and pressure
Procedure: Two anhydrous forms of the osanetant p-toluenesulfonic acid were synthesized. […] Form 6, described below, was a stable anhydrous form, but hydrated in water and aqueous solvent mixtures.
Advantageously, Form 1 (hydrate) and Form 6 (anhydrous) were stable on drying. Form 1 re-hydrated at room temperature and pressure after KF analysis, when it was heated in an oven to remove the water.
The experiment was cooled to 5° C. at a rate of 0.1° C./min and stirred at 5° C. for 18 h. The slurry was isolated be Buchner filtration: 42.5 mm Ø grade 1 Whatman filter paper; fast Filtration (<30 s); the cake was washed with 1 mL of ethyl acetate; the isolated solids were dried at 40° C. under vacuum for 72 h. […]

Compound: CC(=O)N(C)C1(c2ccccc2)CCN(CCC[C@]2(c3ccc(Cl)c(Cl)c3)CCCN(C(=O)c3ccccc3)C2)CC1.O=P(O)(O)O [osanetant phosphoric acid Form 7]
- disproportionation in buffer ([1]; pH 6.8 buffer): Disproportionation was observed
- solid chemical stability ([2]; 7-day stability results, overall): Good and best chemical stability
- solid form on 7-day stability ([2]; 7 days, elevated temperature where stated): loss in crystallinity at elevated temperature

Compound: CC(=O)N(C)C1(c2ccccc2)CCN(CCC[C@]2(c3ccc(Cl)c(Cl)c3)CCCN(C(=O)c3ccccc3)C2)CC1.O=S(=O)(O)c1ccccc1 [osanetant benzenesulfonic acid Form 1, (R)-N-(1-(3-(1-benzoyl-3-(3,4-dichlorophenyl)piperidin-3-yl)propyl)-4-phenylpiperidin-4-yl)-N-methylacetamide benzenesulfonic acid]
- degradation on storage (purity) [3]: lack of degradation
- degradation on storage (purity) [4]: lack of degradation
- XRPD after drying at 40° C./75% RH [5]: retained; also recorded: stable; also recorded: Form 1
- XRPD after drying at 40° C. [5]: Form 1
- degradation on storage (purity) [6]: lack of degradation
- degradation on storage (purity) [7]: lack of degradation
- degradation on storage (purity) [8]: lack of degradation
- degradation on storage (purity) [9]: lack of degradation

Compound: CC(=O)N(C)C1(c2ccccc2)CCN(CCC[C@]2(c3ccc(Cl)c(Cl)c3)CCCN(C(=O)c3ccccc3)C2)CC1.Cc1ccc(S(=O)(=O)O)cc1 [osanetant p-toluenesulfonic acid Form 6, (R)-N-(1-(3-(1-benzoyl-3-(3,4-dichlorophenyl)piperidin-3-yl)propyl)-4-phenylpiperidin-4-yl)-N-methylacetamide p-toluenesulfonic acid]
- hydration / form conversion in water and aqueous solvent mixtures [10]: hydrated
- form stability / re-hydration under ambient conditions [10]: stable
- form on drying ([10]; drying (40° C. under vacuum where stated)): stable

Compound: CC(=O)N(C)C1(c2ccccc2)CCN(CCC[C@]2(c3ccc(Cl)c(Cl)c3)CCCN(C(=O)c3ccccc3)C2)CC1.Cc1ccc(S(=O)(=O)O)cc1 [pTSA Form 6]
- Concentration ([1]; pH 1.2): 45800 ng/mL
- Concentration ([1]; pH 4.5): 63000 ng/mL
- Concentration ([1]; pH 6.8): 35600 ng/mL
- HPLC Impurity Content ([2]; 40° C./75% RH): 0.11 % w/w
- HPLC Impurity Content ([2]; 80° C.): 0.88 % w/w
- HPLC Impurity Content ([2]; Ambient Light): 0.11 % w/w

Compound: CC(=O)N(C)C1(c2ccccc2)CCN(CCC[C@]2(c3ccc(Cl)c(Cl)c3)CCCN(C(=O)c3ccccc3)C2)CC1.Cc1ccc(S(=O)(=O)O)cc1 [osanetant p-toluenesulfonic acid Form 5]
- form stability / re-hydration under ambient conditions [10]: rehydrates to Form 1; also recorded: re-hydrated to Form 1; also recorded: hydrated at ambient conditions to Form 1

Compound: CC(=O)N(C)C1(c2ccccc2)CCN(CCCC2(c3ccc(Cl)c(Cl)c3)CCCN(C(=O)c3ccccc3)C2)CC1.O=C(O)C(O)C(O)C(=O)O [osanetant L-tartaric acid Form 2]
- XRPD after drying at 40° C./75% RH [5]: crystallinity was lost
- XRPD after drying at 40° C. [5]: no change

Compound: (R)-N-(1-(3-(1-benzoyl-3-(3,4-dichlorophenyl)piperidin-3-yl)propyl)-4-phenylpiperidin-4-yl)-N-methylacetamide naphthalene-2-sulfonic acid [osanetant naphthalene-2-sulfonic acid Form 1]
- XRPD after drying at 40° C./75% RH [5]: retained; also recorded: stable; also recorded: Form 1
- XRPD after drying at 40° C. [5]: retained; also recorded: Form 1

Compound: CC(=O)N(C)C1(c2ccccc2)CCN(CCC[C@]2(c3ccc(Cl)c(Cl)c3)CCCN(C(=O)c3ccccc3)C2)CC1.Cc1ccc(S(=O)(=O)O)cc1 [osanetant p-toluenesulfonic acid Form 3, (R)-N-(1-(3-(1-benzoyl-3-(3,4-dichlorophenyl)piperidin-3-yl)propyl)-4-phenylpiperidin-4-yl)-N-methylacetamide p-toluenesulfonic acid]
- XRPD after drying at 40° C. [5]: converted to Pattern 4; also recorded: Form 4
